Laboratory results as given in patent US20230414624A1, “METHODS OF TREATING NEUROLOGICAL VENTILATORY INSUFFICIENCY” (Enalare Therapeutics Inc., priority 2022, published 2023).
Entries after “also recorded” stand apart in the source; their conditions may differ.

Key:
[1] = 3 mg/kg IV bolus, animals; cited from earlier work
adult humans = details: 0.4 mg/kg/hr infusion; cited from earlier work
premature lambs = test: Premature (preterm) lamb proof of concept study: spontaneous ventilation under IV bolus and ascending continuous infusion; type: in vivo
Procedure: One set of twin lambs were to be delivered premature via cesarian section, stabilized and managed for four hours. […] The protocol was reviewed and approved by the Institutional Animal Care and Use Committee at Thomas D. Morris, Inc., where the study was conducted.
During delivery and with local anesthesia (1 ml; 2% Lidocaine), lambs were instrumented with an endotracheal tube as well as carotid arterial and jugular catheters through an incision at approximately the midpoint of the anterior neck. Once the umbilical cord was tied and severed, lambs were transferred to a heated surgical bed under a radiant warming lamb. The arterial catheter was connected to a transducer for pressure monitoring and the venous catheter was connected to a pump for continuous infusion of 5% dextrose in water (D5W) at a rate of 6 ml/kg/hr. A reaction thermistor was inserted to monitor temperature and lambs were covered with plastic to minimize evaporative heat loss. The airway was suctioned and Surfactant (Curosurf, 2.5 ml/kg) was administered intratracheally over a period of 5 minutes in 4 positions (Trendelenburg, reverse Trendelenburg, and left and right lateral decubitus positions). Lambs were to receive four mechanical breaths for lung recruitment and then started on CPAP initiated at 5 cmH2O and continuously optimized to effect (4-8 cmH2O) along with fraction of inspired oxygen (FIO2) over the course of the study.
The formulation used was a 10 mg/mL aqueous solution (adjusted for the hydrogen sulfate salt and impurities) with a citric acid buffer and a pH of 3.2. The infusion was with ascending dose hourly, while the second lamb was to serve as sham control. […] The four, hourly doses are described in table 1.
For pulmonary function assessments, a pneumotach was placed between the endotracheal tube and the CPAP connector. At least ten representative breaths free of movement of atypical breathing artifact were recorded using a pulmonary function system designed for neonatal research (NewLifeBox-R, Advanced Life Diagnostics, Weener, Germany). For each period the rate, tidal volumes and minute ventilation was derived from an average of the ten breaths. To maintain a stable plain of anesthesia, repeat doses of fentanyl (1 μg IM) were given as needed throughout the protocol based on blood pressure response to stimulation. At the conclusion of the study, animals were sacrificed and tissue sampled harvested for subsequent histopathology.

[2] = test lamb, ascending hourly infusion

For CCCNc1nc(NCCC)nc(N(C)OC)n1 [Compound 1, N-(4,6-Bis-n-propylamino-[1,3,5]triazin-2-yl)-O,N-dimethyl-hydroxylamine], the “Plasma levels after bolus intravenous injection” value [1] is given as “transient therapeutic plasma levels”, the “Efficacy of the low dose in adult humans” value (adult humans) is given as “minimal effect; also recorded: limited efficacy; also recorded: humans; minimal efficacy” and the “Spontaneous breathing, both lambs” value (premature lambs; after bolus administration of a loading dose) is given as “immediately resulted in spontaneous breathing in both lambs”. The “Respiratory rate (RR), course over the four hours” value (premature lambs; in vivo) was “gradually decreased”, the “Spontaneous breathing after IV bolus” value (premature lambs; sham lamb 4.1 kg, no spontaneous breathing before, single IV bolus 2.4 mg/kg, no infusion) was “the lamb began breathing spontaneously. After several minutes, the spontaneous breathing efforts abated” and the “Spontaneous breathing after IV bolus loading dose” value (premature lambs; test lamb 3.2 kg, no spontaneous breathing before, IV bolus 3.1 mg/kg during 0.4 mg/kg/hr infusion, then continuous infusion for four hours) was “the lamb began breathing spontaneously and never again required manual intervention”. The “Spontaneous minute ventilation (MV) at baseline and for 10 minutes after start of infusion” value (premature lambs; test lamb, 0.4 mg/kg/hr infusion without loading dose) was “zero”, the “Spontaneous minute ventilation (MV) immediately following the bolus loading dose” value (premature lambs; test lamb, IV bolus 3.1 mg/kg) was “approximately 1,100 mL/min” and the “End tidal carbon dioxide level (EtCO2), course over the four hours” value (premature lambs; [2]) was “concomitant decrease; also recorded: progressive decline”. The “Heart rate and mean arterial pressure through the four hours” value (premature lambs; [2]) was “stable”, the “Tidal volume, course over the four hours” value (premature lambs; [2]) was “consistent rise” and the “Minute ventilation (MV), course over the four hours” value (premature lambs; test lamb, ascending hourly infusion 0.4, 1.1, 2.0, 12 mg/kg/hr) was “continued to rise”. The “Minute ventilation (MV), all but the first three measurements of spontaneous breathing” value (premature lambs; test lamb, ascending hourly infusion, 1,344 mL/min = maximal MV of literature mechanical ventilation) was “exceeded 1,344 mL/min”, the “Tidal volume per kg of body weight versus lung protective range” value (premature lambs; test lamb, ascending hourly infusion, range 4 to 6 mL/kg) was “at least as deep and ultimately surpassed the lung protective range of 4 to 6 mL/kg; also recorded: always within or above the noted target tidal volume range” and the Respiratory rate (premature lambs; test lamb, whole study period, normal newborn lamb 36 to 48) was ≥ 70 breaths per minute.
